Reference: PubChem BioAssay (NCI)
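Where inhibition never reached the appropriate level, the endpoint shown equals the highest concentration tested. Otherwise, values were interpolated linearly from a five-concentration, 48-hour dose response in 96-well plates. At the TGI there is no net growth.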

Assays:
Test in all cases: NCI anticancer screen, dose series, 48 h
ACHN renal = system: ACHN renal
TK-10 renal = system: TK-10 renal
SF-268 CNS = system: SF-268 CNS
U251 CNS = system: U251 CNS
MDA-MB-231 breast = system: MDA-MB-231 breast
A549 NSCLC = system: A549 NSCLC
SK-MEL-28 melanoma = system: SK-MEL-28 melanoma
HOP-92 NSCLC = system: HOP-92 NSCLC
SK-OV-3 ovarian = system: SK-OV-3 ovarian
SNB-75 CNS = system: SNB-75 CNS
RXF 393 renal = system: RXF 393 renal
UACC-62 melanoma = system: UACC-62 melanoma
SW-620 colon = system: SW-620 colon
MALME-3M melanoma = system: MALME-3M melanoma
NCI/ADR-RES ovarian = system: NCI/ADR-RES ovarian
BT-549 breast = system: BT-549 breast
OVCAR-8 ovarian = system: OVCAR-8 ovarian
KM12 colon = system: KM12 colon
OVCAR-4 ovarian = system: OVCAR-4 ovarian
SF-295 CNS = system: SF-295 CNS
OVCAR-3 ovarian = system: OVCAR-3 ovarian
786-0 renal = system: 786-0 renal
HCT-116 colon = system: HCT-116 colon
OVCAR-5 ovarian = system: OVCAR-5 ovarian
SK-MEL-5 melanoma = system: SK-MEL-5 melanoma
HCC-2998 colon = system: HCC-2998 colon
COLO 205 colon = system: COLO 205 colon
A498 renal = system: A498 renal
HCT-15 colon = system: HCT-15 colon
NCI-H522 lung = system: NCI-H522 lung
UACC-257 melanoma = system: UACC-257 melanoma
EKVX NSCLC = system: EKVX NSCLC
MDA-N = system: MDA-N
HS 578T breast = system: HS 578T breast
UO-31 renal = system: UO-31 renal
HT29 colon = system: HT29 colon
NCI-H23 lung = system: NCI-H23 lung
M14 melanoma = system: M14 melanoma
T-47D breast = system: T-47D breast
MDA-MB-435 = system: MDA-MB-435
CAKI-1 renal = system: CAKI-1 renal
MOLT-4 leukemia = system: MOLT-4 leukemia
HOP-62 NSCLC = system: HOP-62 NSCLC
MCF7 breast = system: MCF7 breast
RPMI-8226 leukemia = system: RPMI-8226 leukemia
DU-145 prostate = system: DU-145 prostate
SNB-19 CNS = system: SNB-19 CNS
PC-3 prostate = system: PC-3 prostate
SK-MEL-2 melanoma = system: SK-MEL-2 melanoma
IGROV1 ovarian = system: IGROV1 ovarian
NCI-H460 lung = system: NCI-H460 lung
K-562 leukemia = system: K-562 leukemia
SF-539 CNS = system: SF-539 CNS
HL-60(TB) leukemia = system: HL-60(TB) leukemia
LOX IMVI melanoma = system: LOX IMVI melanoma
SN12C renal = system: SN12C renal
CCRF-CEM leukemia = system: CCRF-CEM leukemia
NCI-H226 lung = system: NCI-H226 lung

Measured: TGI

CCOC(=O)c1cc(C2(OC)CCN(Cc3ccccc3)C2=O)c(-c2cc(C)no2)[nH]1 (stereo unspecified)
> 100 µM: ACHN renal | TK-10 renal | SF-268 CNS | U251 CNS | MDA-MB-231 breast | A549 NSCLC | SK-MEL-28 melanoma | HOP-92 NSCLC | SK-OV-3 ovarian | SNB-75 CNS | RXF 393 renal | UACC-62 melanoma | SW-620 colon | MALME-3M melanoma | NCI/ADR-RES ovarian | BT-549 breast | OVCAR-8 ovarian | KM12 colon | OVCAR-4 ovarian | SF-295 CNS | OVCAR-3 ovarian | 786-0 renal | HCT-116 colon | OVCAR-5 ovarian | SK-MEL-5 melanoma | HCC-2998 colon | COLO 205 colon | A498 renal | HCT-15 colon | NCI-H522 lung | UACC-257 melanoma | EKVX NSCLC | MDA-N | HS 578T breast | UO-31 renal | HT29 colon | NCI-H23 lung | M14 melanoma | T-47D breast | MDA-MB-435 | CAKI-1 renal | MOLT-4 leukemia | HOP-62 NSCLC | MCF7 breast | RPMI-8226 leukemia | DU-145 prostate | SNB-19 CNS | PC-3 prostate | SK-MEL-2 melanoma | IGROV1 ovarian | NCI-H460 lung | K-562 leukemia

Cn1c(=O)c2c(nc3sc4ncccc4c(=O)n32)n(C)c1=O
> 100 µM: ACHN renal | TK-10 renal | SF-268 CNS | U251 CNS | MDA-MB-231 breast | SK-MEL-28 melanoma | HOP-92 NSCLC | SK-OV-3 ovarian | SNB-75 CNS | RXF 393 renal | UACC-62 melanoma | SF-539 CNS | SW-620 colon | NCI/ADR-RES ovarian | BT-549 breast | OVCAR-8 ovarian | HL-60(TB) leukemia | KM12 colon | OVCAR-4 ovarian | SF-295 CNS | OVCAR-3 ovarian | 786-0 renal | HCT-116 colon | LOX IMVI melanoma | OVCAR-5 ovarian | SK-MEL-5 melanoma | HCC-2998 colon | SN12C renal | COLO 205 colon | A498 renal | HCT-15 colon | UACC-257 melanoma | EKVX NSCLC | MDA-N | HS 578T breast | UO-31 renal | CCRF-CEM leukemia | HT29 colon | NCI-H23 lung | M14 melanoma | T-47D breast | MDA-MB-435 | CAKI-1 renal | MOLT-4 leukemia | HOP-62 NSCLC | MCF7 breast | RPMI-8226 leukemia | DU-145 prostate | SNB-19 CNS | PC-3 prostate | SK-MEL-2 melanoma | IGROV1 ovarian | NCI-H460 lung | NCI-H226 lung
